Measurements reported in patent publication US20260092114A1, “TREATMENT OF LUNG CANCER USING A COMBINATION OF AN ANTI-PD-1 ANTIBODY AND ANOTHER ANTI-CANCER AGENT” (Bristol-Myers Squibb Company, priority 2016, published 2026).
Read-outs that look alike come from different tables or passages of the source.

Tests used:
NSCLC = details: cited from earlier work; for median OS with maintenance therapy: non-squamous NSCLC patients, maintenance after platinum doublet
[1] = system: metastatic squamous cell NSCLC; details: cited from earlier work
[2] = CA184022 study of ipilimumab; format: in vivo, human
Description: Similarly, ipilimumab at 10 mg/kg has been safely administered over a 90 minute duration. In the CA184022 study, where ipilimumab was administered up to a dose of 10 mg/kg, on-study drug related hypersensitivity events (Grade 1-2) were reported in 1 (1.4%) subject in the 0.3 mg/kg and in 2 (2.8%) subjects in the 10 mg/kg group. […] Ipilimumab 10 mg/kg monotherapy has also been safely administered as 90 minute infusion in large phase 3 studies in prostate cancer (CA184043) and as adjuvant therapy for stage 3 melanoma (CA184029), with infusion reactions occurring in subjects. Administering 1 mg/kg of ipilimumab represents one-tenth of the 10 mg/kg dose.

[3] = system: metastatic squamous cell NSCLC; details: CA209063, 117 patients; cited from earlier work
[4] = nivolumab pharmacokinetics, population pharmacokinetic (PPK) analysis; format: in vivo, human; details: for Cavgss Geo. Mean / Cmaxss Geo. Mean / Cminss Geo. Mean: geometric mean (cv %)
Description: Nivolumab monotherapy has been studied in NSCLC patient population in studies CA209003, CA209063, CA209017, and CA209057 with body weight normalized dosing (mg/kg). Nivolumab pharmacokinetics (PK) and exposures of subjects in these studies have been characterized by population pharmacokinetic (PPK) analysis of data collected these studies, together with PK data from several phase 1, 2, and 3 clinical studies of nivolumab monotherapy in solid tumors. Nivolumab PK was determined to be linear, with dose proportional exposures over a dose range of 0.1 to 10 mg/kg. […] Conversely, given the relationship between nivolumab PK and body weight, a flat dose is expected to lead to lower exposures in heavier patients, relative to the exposures in lighter patients.
Table 3 presents summary statistics of the estimated nivolumab steady-state trough, peak and time-averaged concentration (Cminss, Cmaxss, and Cavgss, respectively) in NSCLC subjects receiving 3 mg/kg, together with corresponding statistics of exposures predicted for a flat nivolumab dose of 240 mg. It should be noted that a dose of 240 mg nivolumab is identical to a dose of 3 mg/kg for subjects weighing 80 kg, which is the approximate median body weight of NSCLC subjects in the 3 phase 2 and 3 clinical studies of nivolumab monotherapy in NSCLC patients (CA209017, CA209057, and CA209063).

[5] = system: CMV specific memory T cells; experiment: CMV re-stimulation assay with human PBMC; format: cell-based; details: dose-dependent, versus isotype-matched control
Text: (Topalian S L et al. N Eng J Med 2012; 366: 2443-54.)

[6] = system: second line or later NSCLC; details: 3 mg/kg dose, cited from earlier work
PD-1 = PD-1 (Homo sapiens, UniProt Q15116); set-up: endogenous in cells; details: across all doses 0.3 mg/kg to 10 mg/kg, 15 subjects; cited from earlier work
previously treated NSCLC = details: cited from earlier work
[7] = nivolumab monotherapy tolerability across clinical studies; format: in vivo
[8] = system: chemotherapy-naive advanced NSCLC; experiment: CA209012 Phase 1 study, nivolumab monotherapy and nivolumab plus ipilimumab, first line; format: in vivo, human
Description: Nivolumab monotherapy at 3 mg/kg every 2 weeks has been evaluated in one of several cohorts of chemotherapy-naive patients with advanced NSCLC in study CA209012. Results from this cohort (n=52), including 13 subjects with squamous histology and 39 subjects with non-squamous histology, show an overall response rate (ORR) of 23% and a disease control rate (DCR) of 50%. The PFS rate at 24 weeks is 41%, with a median PFS of 16 weeks. The OS rate at 12 months is 74%, and the median overall survival (OS) is 22.6 months. The majority of responses have been durable, with the median duration of response not reached. In contrast, the median OS for patients with non-squamous histology who receive platinum doublet chemotherapy is 13 months, and for those with squamous histology is 10 months. (Ellis et al. J Clin Oncol (2014) 32:1277-1280.)
The nivolumab plus ipilimumab combination has been also evaluated at several different doses and schedules as first line therapy in patients with advanced NSCLC in CA209012, an ongoing Phase 1 study of nivolumab as monotherapy and in combination with a variety of agents. Early cohorts evaluated 2 different dosing schedules: nivolumab 1 mg/kg+ipilimumab 3 mg/kg, every 3 weeks for four cycles as induction, followed by nivolumab 3 mg/kg every 2 weeks; or nivolumab 3 mg/kg+ipilimumab 1 mg/kg, every 3 weeks for four cycles as induction, followed by nivolumab 3 mg/kg every 2 weeks.
Thus, a third combination cohort was initiated: nivolumab 1 mg/kg+ipilimumab 1 mg/kg every 3 weeks (“1+1”) for 4 cycles as induction, followed by nivolumab 3 mg/kg every 2 weeks as maintenance. This dosing regimen has been much better tolerated with only 13% of subjects experiencing treatment-related AEs leading to discontinuation. […] The ORR is 16%, and the DCR is 58%. The PFS rate at 24 weeks is 55% with a median PFS of 46.1 weeks. The OS rate at 12 months is 63%, and the median OS is not reached. Activity has been observed in patients with both PD-L1 positive (PD-L1+) and PD-L1 negative (PD-L1−) tumors. […]
Analyses based on archival specimens for subjects in CA209012 have shown that subjects with both PD-L1+(IHC greater than or equal to 5%) and PD-L1 tumors may benefit from treatment with nivolumab. […] However, the disease control rate (DCR, CR+PR+SD) was 54% for those with PD-L1+ tumors and 50% for those with PD-L1− tumors. […] Again there was less of a difference in the DCR between the 2 groups: 53% for those with PD-L1+ tumors and 51% for those with PD-L1− tumors. For subjects receiving nivolumab monotherapy, the PFS rate at 24 weeks was 40% and 45% for patients with PD-L1+ and PD-L1− tumors respectively; the median OS was 19.1 months in subjects with PD-L1+ tumors and not reached in subjects with PD-L1− tumors. For subjects receiving nivolumab plus ipilimumab, the median PFS was 21.7 weeks and 12.4 weeks in PD-L1+ and PD-L1− tumors respectively; the median OS was 21.5 months in subjects with PD-L1+ tumors and 19.4 months in subjects with PD-L1− tumors. […]

[9] = dose 3 (mg/kg), NSCLC subjects, estimated
[10] = monotherapy 3 mg/kg every 2 weeks, n=52

PD-1, sequence (Q15116 25-288): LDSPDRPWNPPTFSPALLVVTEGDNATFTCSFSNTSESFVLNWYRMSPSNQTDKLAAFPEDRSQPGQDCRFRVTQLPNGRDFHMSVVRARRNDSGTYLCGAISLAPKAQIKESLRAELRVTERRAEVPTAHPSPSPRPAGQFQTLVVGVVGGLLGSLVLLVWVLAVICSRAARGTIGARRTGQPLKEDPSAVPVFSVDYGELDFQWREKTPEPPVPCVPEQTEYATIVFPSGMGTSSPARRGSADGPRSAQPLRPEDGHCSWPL

Compound: CC(=O)O[C@@]12CO[C@@H]1C[C@H](O)[C@@]1(C)C(=O)[C@H](O)C3=C(C)[C@@H](OC(=O)[C@H](O)[C@@H](NC(=O)OC(C)(C)C)c4ccccc4)C[C@@](O)([C@@H](OC(=O)c4ccccc4)[C@H]21)C3(C)C [docetaxel, reference compound]
- historical ORR (NSCLC; second-line): 8-10%
- historical median PFS (NSCLC; second-line): approximately 3 months
- median overall survival (OS) ([1]; CA209017): 6 months
- patients with a Grade 3-5 treatment-related event ([1]; CA209017): Fifty-seven
- treatment-related deaths (grade 5 event) ([1]; CA209017): 3

Compound: Nc1nc2[nH]cc(CCc3ccc(C(=O)N[C@@H](CCC(=O)O)C(=O)O)cc3)c2c(=O)[nH]1 [pemetrexed]
- median OS with maintenance therapy (NSCLC): ~13.9 month

Compound: bevacizumab: monoclonal antibody that blocks vascular endothelial growth factor A (VEGF-A)
- median OS with maintenance therapy (NSCLC): ~13.9 month

Compound: gemcitabine/cisplatin
- alopecia, all grades (NSCLC; human, in vivo): 21%
- fatigue, Grade 3/4 (NSCLC; human, in vivo): 5%
- febrile neutropenia, Grade 3/4 (NSCLC; human, in vivo): 4%
- rate of Grade 3/4 anemia (NSCLC; human, in vivo): 10%
- rate of Grade 3/4 neutropenia (NSCLC; human, in vivo): 27%
- rate of Grade 3/4 thrombocytopenia (NSCLC; human, in vivo): 13%
- vomiting, Grade 3/4 (NSCLC; human, in vivo): 6%

Compound: ipilimumab: fully human, IgG1 monoclonal antibody that blocks the binding of CTLA-4 to its B7 ligands
- drug related hypersensitivity events (Grade 1-2) ([2]; 0.3 mg/kg group): 1.4%
- drug-related hypersensitivity events ([2]; 3 mg/kg group): no drug-related hypersensitivity events
- drug related hypersensitivity events (Grade 1-2) ([2]; 10 mg/kg group): 2.8%
- Grade 3-4 drug-related hypersensitivity events ([2]; across the 3 treatment groups): no Grade 3-4 drug-related hypersensitivity events

Compound: nivolumab
- overall response rate (ORR) [3]: 15%
- coefficient of variation (cv %) of exposure greater than that of 3 mg/kg dosing ([4]; 240 mg flat vs 3 mg/kg): < 10%
- geometric mean Cminss, Cmaxss and Cavgss with flat dosing higher than with 3 mg/kg ([4]; 240 mg flat vs 3 mg/kg): < 15%
- PK in global and Japanese subjects ([4]; comparison of PK parameters): similar
- Cavgss Geo. Mean [4, 9]: 73.3 (35.6)
- Cmaxss Geo. Mean [4, 9]: 118.9 (31.8)
- Cminss Geo. Mean [4, 9]: 54.7 (41.9)
- PK linearity ([4]; dose range of 0.1 to 10 mg/kg, dose proportional exposures): linear
- Cavgss Geo. Mean ([4]; flat dose 240 (mg), predicted): 82.4 (38.2)
- Cmaxss Geo. Mean ([4]; flat dose 240 (mg), predicted): 133.7 (35.0)
- Cminss Geo. Mean ([4]; flat dose 240 (mg), predicted): 61.5 (44.6)
- half-life ([4]; in vivo): up to 25 days
- IFN-7 secretion from CMV specific memory T cells [5]: augmented IFN-7 secretion
- 24-week PFS rate ([6]; non-squamous): 42%
- objective response rate (ORR) ([6]; non-squamous): 26%
- 24-week PFS rate ([6]; squamous): 45%
- objective response rate (ORR) ([6]; squamous): 22%
- mean PD-1 occupancy rate (PD-1): 85%
- mean plateau occupancy (PD-1): 72%
- objective response rates (previously treated NSCLC): ~25%
- progression-free survival (PFS) rate at 24 weeks (previously treated NSCLC): ~45%
- safety and tolerability ([7]; Japanese subjects): safe and well tolerated
- dose achieved without reaching the maximum tolerated dose (MTD) ([7]; monotherapy, every two weeks): > 10 mg/kg
- safety and tolerability ([7]; up to a dose level of 10 mg/kg): safe and well tolerated
- HR for overall survival vs docetaxel ([1]; CA209017): 0.59
- median overall survival (OS) ([1]; CA209017): 9.6 months
- treatment-related deaths (grade 5 event) ([1]; CA209017): none
- patients with a Grade 3-5 treatment-related event ([1]; in vivo): 6.9%
- PFS rate at 24 weeks ([8]; PD-L1+ tumors): 40%
- disease control rate (DCR, CR+PR+SD) ([8]; PD-L1+ tumors): 54%
- median OS ([8]; PD-L1+ tumors): 19.1 months
- overall response rate (ORR) ([8]; PD-L1+ tumors (IHC >= 5%)): 31%
- PFS rate at 24 weeks ([8]; PD-L1− tumors): 45%
- disease control rate (DCR, CR+PR+SD) ([8]; PD-L1− tumors): 50%
- median OS ([8]; PD-L1− tumors): not reached
- overall response rate (ORR) ([8]; PD-L1− tumors): 15%
- OS rate at 12 months [8, 10]: 74%
- PFS rate at 24 weeks [8, 10]: 41%
- disease control rate (DCR) [8, 10]: 50%
- median PFS [8, 10]: 16 weeks
- median overall survival (OS) [8, 10]: 22.6 months
- overall response rate (ORR) [8, 10]: 23%

Compound: paclitaxel/carboplatin
- arthralgia, Grade 3/4 (NSCLC; human, in vivo): 6%
- fatigue, Grade 3/4 (NSCLC; human, in vivo): 5%
- febrile neutropenia, Grade 3/4 (NSCLC; human, in vivo): 3%
- neuropathy, Grade 2/3 (NSCLC; human, in vivo): 18%
